US20160376240A1, “6 Phenyl or 6 Pyridin 3 YL Indazole Derivatives and Methods of Use” (ABBVIE INC., priority 2014, published 2016)

The compounds below were run against T1, TrkA (Homo sapiens, UniProt P04629) (assay: TrkA kinase inhibition, HTRF assay). Settings: LCK peptide substrate 125 nM, TrkA 2-10 nM pre-incubated with ATP 200 μM.
T1 construct: purchased Invitrogen PV3144
Format: biochemical
Protocol: TrkA, TrkB, and TrkC enzymes were obtained from Invitrogen (as catalog numbers PV3144, PV3616, and PV3617, respectively). The ability of a compound to inhibit the enzymatic activity of the TrkA, TrkB, and TrkC enzymes was determined in separate assays. Enzyme activity was measured in an HTRF® (homogeneous time resolved fluorescence) assay, which detects enzymatic phosphorylation of a biotinylated synthetic peptide substrate (an LCK peptide analog, biotin-ahx-GAEEEIYAAFFA, from Genemed Synthesis). Phosphorylation is assessed by HTRF® in the presence of an anti-phosphotyrosine antibody conjugated to Eu^3+ cryptate (Cisbio) as donor fluorophore, and streptavidin conjugated to allophycocyanin (ProZyme) as acceptor fluorophore. The HTRF® signal was detected at two different wavelengths (620 nm and 665 nm) which were used to calculate the fluorescence ratio.
Each enzyme was titrated to a concentration optimized to ensure accurate measurement of the initial reaction rate. To allow the Trk enzymes to undergo activation and auto-phosphorylation, a 20 minute pre-incubation with ATP was carried out (at twice the final targeted enzyme and ATP concentration) prior to addition of test compound and the peptide substrate.
TrkA in vitro assays were performed by pre-incubating TrkA (2-10 nM) with ATP (200 μM) for 20 minutes at ambient temperature in 50 mM HEPES pH 7.4, 10 mM MgCl2, 2 mM MnCl2, 100 μM Na3VO4, 1 mM dithiothreitol, 0.01% BSA (bovine serum albumin). Then, to the activated Trk enzyme mixture was added the test compound in 2% dimethyl sulfoxide. After 10 minutes, the peptide substrate (125 nM) was added. After 1 hour, enzyme reactions were terminated by addition of equal reaction volumes of detection/stop reagent (containing 0.2 μg/mL anti-phosphotyrosine monoclonal antibody labeled with europium from Cisbio (catalog# PT66-K), and 4 μg/mL PhycoLink® Streptavidin-Allophycocyanin conjugate from ProZyme (catalog# PJ25S) in 60 mM EDTA in 40 mM HEPES pH 7.4, 480 mM KF, 0.01% Tween® 20 and 0.1% BSA bovine serum albumin) Reaction plates were stored at 4° C. overnight before reading the fluorescence ratio signal on a PerkinElmer EnVision™ fluorescence detector. Individual reaction wells were stopped at time points to obtain reaction rates. The test inhibitor compounds were assayed in duplicate, at half-log serial dilutions over a range of concentrations (e.g. starting at 50 μM or 5 μM as the high compound concentration). The percent Trk enzyme inhibition was calculated from the initial rates of the inhibited reactions relative to the uninhibited control. IC50 values were calculated by fitting the inhibition percent to the concentration of inhibitor [I] in the assay in equation 1 below, to solve for the IC50.
Inhibition %=100[I]/([I]+[IC50]) equation 1

T1 sequence (P04629 33-796): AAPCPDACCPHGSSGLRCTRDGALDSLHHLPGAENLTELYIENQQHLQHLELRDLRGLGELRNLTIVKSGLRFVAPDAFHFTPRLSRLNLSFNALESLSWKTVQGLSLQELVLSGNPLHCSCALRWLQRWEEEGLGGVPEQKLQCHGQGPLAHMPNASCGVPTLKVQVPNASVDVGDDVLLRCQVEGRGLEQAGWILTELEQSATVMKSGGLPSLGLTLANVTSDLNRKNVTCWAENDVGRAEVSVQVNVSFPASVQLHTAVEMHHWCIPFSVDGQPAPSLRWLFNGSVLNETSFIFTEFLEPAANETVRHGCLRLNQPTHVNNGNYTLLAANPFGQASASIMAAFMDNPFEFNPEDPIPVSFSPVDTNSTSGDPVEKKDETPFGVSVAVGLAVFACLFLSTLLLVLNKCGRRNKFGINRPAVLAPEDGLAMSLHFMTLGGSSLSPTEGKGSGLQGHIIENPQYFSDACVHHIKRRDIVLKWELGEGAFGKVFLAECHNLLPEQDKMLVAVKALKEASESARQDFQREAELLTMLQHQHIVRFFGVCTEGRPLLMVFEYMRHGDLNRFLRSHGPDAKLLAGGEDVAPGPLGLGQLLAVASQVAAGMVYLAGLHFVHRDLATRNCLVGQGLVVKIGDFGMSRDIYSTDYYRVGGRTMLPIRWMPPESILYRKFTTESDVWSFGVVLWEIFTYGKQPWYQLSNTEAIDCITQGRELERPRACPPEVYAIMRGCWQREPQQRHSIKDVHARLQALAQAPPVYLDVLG

Compound	IC50 [nM]
CNC(=O)c1ccc(-c2cc(O[C@H](C)C(F)(F)F)c3c(N)n[nH]c3c2)cc1N1CCN(C(=O)C(C)(C)C)CC1 [Example 54, 4-(3-amino-4-{[(2R)-1,1,1-trifluoropropan-2-yl]oxy}-1H-indazol-6-yl)-2-[4-(2,2-dimethylpropanoyl)piperazin-1-yl]-N-methylbenzamide]	101
CNC(=O)c1ccc(-c2cc(OC3CCOCC3)c3c(C)n[nH]c3c2)cc1N1CCN(c2ncc(F)cn2)CC1 [Example 165, 2-[4-(5-fluoropyrimidin-2-yl)piperazin-1-yl]-N-methyl-4-[3-methyl-4-(tetrahydro-2H-pyran-4-yloxy)-1H-indazol-6-yl]benzamide]	1040
CNC(=O)c1ccc(-c2cc(OC3CCOCC3)c3c(C)n[nH]c3c2)cc1N1CCN(S(=O)(=O)c2ccc(C)cc2)CC1 [Example 152, N-methyl-2-{4-[(4-methylphenyl)sulfonyl]piperazin-1-yl}-4-[3-methyl-4-(tetrahydro-2H-pyran-4-yloxy)-1H-indazol-6-yl]benzamide]	7.48
NC(=O)c1ccc(-c2cc(OC3CCOCC3)c3c(N)n[nH]c3c2)cc1N1CCN(c2cncc(Cl)c2)CC1 [Example 8, 4-[3-amino-4-(tetrahydro-2H-pyran-4-yloxy)-1H-indazol-6-yl]-2-[4-(5-chloropyridin-3-yl)piperazin-1-yl]benzamide]	4.42
Cc1n[nH]c2cc(-c3ccc(C(=O)NC4CC4)c(N4CCN(c5ccccc5)CC4)c3)cc(OC3CCOCC3)c12 [Example 117, N-cyclopropyl-4-[3-methyl-4-(tetrahydro-2H-pyran-4-yloxy)-1H-indazol-6-yl]-2-(4-phenylpiperazin-1-yl)benzamide]	17.7
CNC(=O)c1ccc(-c2cc(OC3CCOCC3)c3c(N)n[nH]c3c2)cc1N1CCN(CC(F)F)CC1 [Example 169, 4-[3-amino-4-(tetrahydro-2H-pyran-4-yloxy)-1H-indazol-6-yl]-2-[4-(2,2-difluoroethyl)piperazin-1-yl]-N-methylbenzamide]	38
CC(=O)Nc1ccc(-c2cc(OC3CCOCC3)c3c(C)n[nH]c3c2)cc1N1CCN(C(=O)NC(C)C)CC1 [Example 151, 4-{2-acetamido-5-[3-methyl-4-(tetrahydro-2H-pyran-4-yloxy)-1H-indazol-6-yl]phenyl}-N-isopropylpiperazine-1-carboxamide]	166
Cc1n[nH]c2cc(-c3ccc(C(N)=O)c(N4CCN(C(=O)OC(C)C)CC4)c3)cc(OC3CCOCC3)c12 [Example 142, isopropyl 4-{2-carbamoyl-5-[3-methyl-4-(tetrahydro-2H-pyran-4-yloxy)-1H-indazol-6-yl]phenyl}piperazine-1-carboxylate]	23.2
CC(=O)c1ccc(-c2cc(OC3CCOCC3)c3c(N)n[nH]c3c2)cc1N1CCN(c2cccnc2)CC1 [Example 16, 1-{4-[3-amino-4-(tetrahydro-2H-pyran-4-yloxy)-1H-indazol-6-yl]-2-[4-(pyridin-3-yl)piperazin-1-yl]phenyl}ethanone]	29.6
CNC(=O)c1ccc(-c2cc(OC(C)C(F)(F)F)c3c(N)n[nH]c3c2)cc1N1CCN(c2ccccc2)CC1 (centres unmarked) [Example 33, 4-{3-amino-4-[(1,1,1-trifluoropropan-2-yl)oxy]-1H-indazol-6-yl}-N-methyl-2-(4-phenylpiperazin-1-yl)benzamide]	28
CNC(=O)c1ccc(-c2cc(OC3CCOCC3)c3c(C)n[nH]c3c2)cc1OCCOC1CCCCC1 [Example 126, 2-[2-(cyclohexyloxy)ethoxy]-N-methyl-4-[3-methyl-4-(tetrahydro-2H-pyran-4-yloxy)-1H-indazol-6-yl]benzamide]	4.74
NC(=O)c1ccc(-c2cc(O[C@@H]3CCOC3)c3c(N)n[nH]c3c2)cc1N1CCN(c2cccnc2)CC1 [Example 68, 4-{3-amino-4-[(3R)-tetrahydrofuran-3-yloxy]-1H-indazol-6-yl}-2-[4-(pyridin-3-yl)piperazin-1-yl]benzamide]	8.06
NC(=O)c1ccc(-c2cc(OC3CCOCC3)c3c(N)n[nH]c3c2)cc1N1CCN(CCCO)CC1 [Example 7, 4-[3-amino-4-(tetrahydro-2H-pyran-4-yloxy)-1H-indazol-6-yl]-2-[4-(3-hydroxypropyl)piperazin-1-yl]benzamide]	706
Nc1n[nH]c2cc(-c3ccc(C(=O)NC4CC4)c(N4CCN(c5cccnc5)CC4)c3)cc(OC3CCOCC3)c12 [Example 24, 4-[3-amino-4-(tetrahydro-2H-pyran-4-yloxy)-1H-indazol-6-yl]-N-cyclopropyl-2-[4-(pyridin-3-yl)piperazin-1-yl]benzamide]	20.4
CC(Oc1cc(-c2ccc(C(N)=O)c(N3CCN(C4CCCCC4)CC3)c2)cc2[nH]nc(N)c12)C(F)(F)F (centres unmarked) [Example 93, 4-{3-amino-4-[(1,1,1-trifluoropropan-2-yl)oxy]-1H-indazol-6-yl}-2-(4-cyclohexylpiperazin-1-yl)benzamide]	27
CC(Oc1cc(-c2ccc(C(N)=O)c(N3CCN(CCC(C)(C)C)CC3)c2)cc2[nH]nc(N)c12)C(F)(F)F (centres unmarked) [Example 100, 4-{3-amino-4-[(1,1,1-trifluoropropan-2-yl)oxy]-1H-indazol-6-yl}-2-[4-(3,3-dimethylbutyl)piperazin-1-yl]benzamide]	4.98
CCNC(=O)c1ccc(-c2cc(OC3CCCC3)c3cn[nH]c3c2)cc1N1CCN(c2ccccc2)CC1 [Example 120, 4-[4-(cyclopentyloxy)-1H-indazol-6-yl]-N-ethyl-2-(4-phenylpiperazin-1-yl)benzamide]	82.5
CNC(=O)c1ccc(-c2cc(O[C@H](C)C(F)(F)F)c3c(N)n[nH]c3c2)cc1OCCOc1ccccc1 [Example 106, 4-(3-amino-4-{[(2R)-1,1,1-trifluoropropan-2-yl]oxy}-1H-indazol-6-yl)-N-methyl-2-(2-phenoxyethoxy)benzamide]	2.67

The remaining compounds from weak to strong by IC50, led by results:

IC50 [nM]	Compound
3460	CN1CCC(N2CCN(c3cc(-c4cc(OC5CCOCC5)c5c(N)n[nH]c5c4)ccc3C(N)=O)CC2)CC1 [Example 9, 4-[3-amino-4-(tetrahydro-2H-pyran-4-yloxy)-1H-indazol-6-yl]-2-[4-(1-methylpiperidin-4-yl)piperazin-1-yl]benzamide]
141	CNC(=O)c1ccc(-c2cc(O[C@H](C)C(F)(F)F)c3c(N)n[nH]c3c2)cc1N1CCN(c2cccnc2)CC1 [Example 49, 4-(3-amino-4-{[(2R)-1,1,1-trifluoropropan-2-yl]oxy}-1H-indazol-6-yl)-N-methyl-2-[4-(pyridin-3-yl)piperazin-1-yl]benzamide]
58.1	CC(Oc1cc(-c2ccc(C(=O)NC3CC3)c(N3CCN(c4ccccc4)CC3)c2)cc2[nH]nc(N)c12)C(F)(F)F (centres unmarked) [Example 26, 4-{3-amino-4-[(1,1,1-trifluoropropan-2-yl)oxy]-1H-indazol-6-yl}-N-cyclopropyl-2-(4-phenylpiperazin-1-yl)benzamide]
30.9	CC(=O)Nc1ccc(-c2cc(OC3CCOCC3)c3c(C)n[nH]c3c2)cc1OCCNC(=O)OC(C)C [Example 147, isopropyl (2-{2-acetamido-5-[3-methyl-4-(tetrahydro-2H-pyran-4-yloxy)-1H-indazol-6-yl]phenoxy}ethyl)carbamate]
29.1	Cc1n[nH]c2cc(-c3ccc(C#N)c(N4CCN(CC(F)(F)F)CC4)c3)cc(OC3CCOCC3)c12 [Example 156, 4-[3-methyl-4-(tetrahydro-2H-pyran-4-yloxy)-1H-indazol-6-yl]-2-[4-(2,2,2-trifluoroethyl)piperazin-1-yl]benzonitrile]
22.3	NC(=O)c1ccc(-c2cc(OC3CCCC3)c3c(N)n[nH]c3c2)cc1N1CCN(C(=O)N2CCOCC2)CC1 [Example 82, 4-[3-amino-4-(cyclopentyloxy)-1H-indazol-6-yl]-2-[4-(morpholin-4-ylcarbonyl)piperazin-1-yl]benzamide]
21.5	CNC(=O)c1ccc(-c2cc(OC3CCOCC3)c3c(C)n[nH]c3c2)cc1N1CCN(Cc2ccccc2)C(=O)C1 [Example 159, 2-(4-benzyl-3-oxopiperazin-1-yl)-N-methyl-4-[3-methyl-4-(tetrahydro-2H-pyran-4-yloxy)-1H-indazol-6-yl]benzamide]
2.27	CNC(=O)c1ccc(-c2cc(OC3CCOCC3)c3c(C)n[nH]c3c2)cc1N1CCN(C(=O)NC(C)C)CC1 [Example 155, N-isopropyl-4-{2-(methylcarbamoyl)-5-[3-methyl-4-(tetrahydro-2H-pyran-4-yloxy)-1H-indazol-6-yl]phenyl}piperazine-1-carboxamide]
